What is called IC50 is the concentration at which inhibition is half-maximal. What is called EC50 is the concentration giving half of the maximal effect.

For one experiment, the system named is BaF3 parental cells. The experiment can be described thus: In vitro cell proliferation, BaF3 parental line + IL3 (CellTiter-Glo). The class given is cell-based, murine.
For experiment [1], the system named is MM1.S (multiple myeloma) cells. The experiment can be described thus: In vitro cell proliferation, MM1.S multiple myeloma cells (CellTiter-Glo, ATP). The class given is cell-based. The settings on record: read-out: Prolif MM1S ATP (EC50). The method, then: BaF3, a murine interleukin-3 dependent pro-B cell line, parental cells, BaF3 PIM1 cells, BaF3 PIM2 cells, and MM1.S (multiple myeloma) cells were seeded at 2 k/well, 5 k/well, 5 k/well, and 10 k/well respectively, in a 384-well plate, at 45 μL/well. Test compound was added at 5 μL/well. BaF3 cells (parental and transfected) were incubated overnight, while MM1.S cells were incubated for 72 hours at 37° C., 5% CO2. […] IC50/EC50 values for the test compound were calculated.

[2] abbreviates: BaF3 parental cells with IL-3, incubated overnight, read-out: Prolif BaF3 + IL3 (IC50).
Setting [3] is: Mus musculus, BaF3, BaF3 parental cells with IL-3, incubated overnight, read-out: Prolif BaF3 + IL3 (IC50).
Where [4] appears, read: Mus musculus, BaF3, BaF3 parental cells with IL-3, incubated overnight, read-out: Prolif BaF3 IL3 (IC50).

Where two headings read alike, the source gives them in different places. Some results are limits rather than exact numbers.

As to `Cn1ncc(NC(=O)c2nc(-c3c(F)cccc3F)sc2N)c1N1CCC(N)CC2(CCO2)C1` (single isomer, unassigned) [Example 452, 5-amino-N-[5-(6-amino-1-oxa-9-azaspiro[3.6]decan-9-yl)-1-methyl-pyrazol-4-yl]-2-(2,6-difluorophenyl)thiazole-4-carboxamide], the IC50 in the experiment with BaF3 parental cells (setting [2]) turned out to be 24.7 µM. For the same compound, in experiment [1] (72 hours), the EC50 came out at 0.0793 µM.
Take `Cn1ncc(NC(=O)c2nc(-c3c(F)cccc3F)sc2N)c1C1CCC(N)CC(C)(O)C1` (single isomer, unassigned) [Example 456, 5-amino-N-[5-(5-amino-3-hydroxy-3-methyl-cycloheptyl)-1-methyl-pyrazol-4-yl]-2-(2,6-difluorophenyl)thiazole-4-carboxamide]: the IC50 with BaF3 parental cells (setting [3]) is greater than 25 µM. In addition, the EC50 in experiment [1] (72 hours) was greater than 25 µM.
As for `Cn1ncc(NC(=O)c2nc(-c3c(F)cccc3F)sc2N)c1C1CCC(N)CC(C)(O)C1` (single isomer, unassigned) [Example 467, 5-amino-N-[5-(5-amino-3-hydroxy-3-methyl-cycloheptyl)-1-methyl-pyrazol-4-yl]-2-(2,6-difluorophenyl)thiazole-4-carboxamide], in the experiment with BaF3 parental cells (setting [2]), the IC50 is greater than 25 µM. Moreover, the EC50 in experiment [1] (72 hours) is 4.8 µM.
Take `Cn1ncc(NC(=O)c2nc(-c3c(F)cccc3F)sc2N)c1C1CCC(N)CC(C)(O)C1` (single isomer, unassigned) [Example 468, 5-amino-N-[5-(5-amino-3-hydroxy-3-methyl-cycloheptyl)-1-methyl-pyrazol-4-yl]-2-(2,6-difluorophenyl)thiazole-4-carboxamide]: in the experiment on BaF3 parental cells (setting [2]), the IC50 was greater than 25 µM. Also, the EC50 in experiment [1] (72 hours) turned out to be 0.824 µM.
Take `Cn1ncc(NC(=O)c2nc(-c3c(F)cccc3F)sc2N)c1N1CCNC[C@]2(CCO2)C1` (single isomer, unassigned) [Example 483]: in the experiment on BaF3 parental cells (setting [3]), the IC50 was greater than 25 µM. The EC50 in experiment [1] (Homo sapiens, MM1.S, 72 h) is greater than 25 µM.
In the case of `COC1(C)CCN(c2c(NC(=O)c3nc(-c4c(F)cccc4F)sc3N)cnn2C)CCC1N` (single isomer, unassigned) [Example 502, 5-amino-N-[5-(5-amino-4-methoxy-4-methyl-azepan-1-yl)-1-methyl-pyrazol-4-yl]-2-(2,6-difluorophenyl)thiazole-4-carboxamide], the IC50 in the experiment with BaF3 parental cells (setting [3]) is 11.9 µM. Further, in experiment [1] (72 hours), the EC50 is 2.2 µM.
On to `COC1(C)CCN(c2c(NC(=O)c3nc(-c4c(F)cccc4F)sc3N)cnn2C)CCC1N` (single isomer, unassigned) [Example 503, 5-amino-N-[5-(5-amino-4-methoxy-4-methyl-azepan-1-yl)-1-methyl-pyrazol-4-yl]-2-(2,6-difluorophenyl)thiazole-4-carboxamide], for which the IC50 in the experiment on BaF3 parental cells (setting [2]) was 11 µM. For the same compound, in experiment [1] (72 hours), the EC50 stood at 0.108 µM.
As for `Cn1ncc(NC(=O)c2nc(-c3c(F)cccc3F)sc2N)c1N1CCC(N)C(C(F)F)CC1` (single isomer, unassigned) [Example 512, 5-amino-N-[5-[4-amino-5-(difluoromethyl)azepan-1-yl]-1-methyl-pyrazol-4-yl]-2-(2,6-difluorophenyl)thiazole-4-carboxamide], in the experiment with BaF3 parental cells (setting [2]), the IC50 came to 24.6 µM. Further, the EC50 in experiment [1] (Homo sapiens, MM1.S, 72 h) came to 2 µM.
Regarding `Cn1ncc(NC(=O)c2nc(-c3c(F)cccc3F)sc2N)c1N1CC[C@H](N)C[C@@H](F)C1` (stereo in doubt) [Example 154, 5-amino-N-(5-(5-amino-3-fluoroazepan-1-yl)-1-methyl-1H-pyrazol-4-yl)-2-(2,6-difluorophenyl)thiazole-4-carboxamide], the IC50 in the experiment on BaF3 parental cells (setting [4]) was found to be 24.5 µM. Moreover, the EC50 in experiment [1] (Homo sapiens, MM1.S, 72 h) was found to be 0.0651 µM.
On the same counts, the results for `CNCC1CCN(c2c(NC(=O)c3nc(-c4c(F)cccc4F)sc3N)cnn2C)CC1` [Example 101, 5-Amino-2-(2,6-difluorophenyl)-N-(1-methyl-5-(4-((methylamino)methyl)piperidin-1-yl)-1H-pyrazol-4-yl)thiazole-4-carboxamide] are 19.5 µM and 17.9 µM.
In the case of `CC[C@H]1CNCCN1c1c(NC(=O)c2nc(-c3c(F)cccc3F)sc2N)cnn1C` [Example 113, (S)-5-Amino-2-(2,6-difluorophenyl)-N-(5-(2-ethylpiperazin-1-yl)-1-methyl-1H-pyrazol-4-yl)thiazole-4-carboxamide], the IC50 with BaF3 parental cells (setting [4]) is greater than 25 µM. Moreover, in experiment [1] (Homo sapiens, MM1.S, 72 h), the EC50 is 19 µM.
In the case of `Cn1ncc(NC(=O)c2nc(-c3c(F)cccc3F)sc2N)c1N1CCC2(CCNC2)CC1` [Example 124, 5-Amino-2-(2,6-difluorophenyl)-N-(1-methyl-5-(2,8-diazaspiro[4.5]decan-8-yl)-1H-pyrazol-4-yl)thiazole-4-carboxamide], in the experiment on BaF3 parental cells (setting [4]), the IC50 worked out at 22.1 µM. In experiment [1] (Homo sapiens, MM1.S, 72 h), the EC50 was 1.4 µM.
Turning to `Cn1ncc(NC(=O)c2nc(-c3c(F)cccc3F)sc2N)c1N1CC[C@@H](N)C[C@@H](F)C1` [Example 126, 5-amino-N-(5-((3R,5R)-5-amino-3-fluoroazepan-1-yl)-1-methyl-1H-pyrazol-4-yl)-2-(2,6-difluorophenyl)thiazole-4-carboxamide], the IC50 with BaF3 parental cells (setting [4]) is greater than 25 µM. Moreover, the EC50 in experiment [1] (Homo sapiens, MM1.S, 72 h) turned out to be 0.11 µM.
Turning to `Cn1ncc(NC(=O)c2nc(-c3c(F)cccc3F)sc2N)c1N1CCNCC2(CC2)C1` [Example 313, 5-amino-N-[5-(5,8-diazaspiro[2.6]nonan-8-yl)-1-methyl-pyrazol-4-yl]-2-(2,6-difluorophenyl)thiazole-4-carboxamide], the IC50 in the experiment on BaF3 parental cells (setting [3]) amounted to 17 µM. In addition, the EC50 in experiment [1] (Homo sapiens, MM1.S, 72 h) was found to be 6.4 µM.
Consider `COC1CCN(c2c(NC(=O)c3nc(-c4c(F)cccc4F)sc3N)cnn2C)CCC1N` (centres unmarked) [Example 314, 5-amino-N-[5-(4-amino-5-methoxy-azepan-1-yl)-1-methyl-pyrazol-4-yl]-2-(2,6-difluorophenyl)thiazole-4-carboxamide], for which, in the experiment on BaF3 parental cells (setting [3]), the IC50 is 13.9 µM. Moreover, the EC50 in experiment [1] (72 hours) was 9 µM.
On to `COC1CC(N)CCN(c2c(NC(=O)c3nc(-c4c(F)cccc4F)sc3N)cnn2C)C1` (centres unmarked) [Example 316, 5-amino-N-[5-(5-amino-3-methoxy-azepan-1-yl)-1-methyl-pyrazol-4-yl]-2-(2,6-difluorophenyl)thiazole-4-carboxamide], for which the IC50 with BaF3 parental cells (setting [2]) is greater than 25 µM. The EC50 in experiment [1] (72 hours) amounted to 0.163 µM.
Regarding `COC1CC(N)CCN(c2c(NC(=O)c3nc(-c4c(F)cccc4F)sc3N)cnn2C)C1` (centres unmarked) [Example 317, 5-amino-N-[5-(5-amino-3-methoxy-azepan-1-yl)-1-methyl-pyrazol-4-yl]-2-(2,6-difluorophenyl)thiazole-4-carboxamide], the IC50 in the experiment with BaF3 parental cells (setting [2]) was greater than 25 µM. Moreover, the EC50 in experiment [1] (72 hours) stood at 0.663 µM.
`COC1CC(N)CCN(c2c(NC(=O)c3nc(-c4c(F)cccc4F)sc3N)cnn2C)C1` (centres unmarked) [Example 320, 5-amino-N-[5-(5-amino-3-methoxy-azepan-1-yl)-1-methyl-pyrazol-4-yl]-2-(2,6-difluorophenyl)thiazole-4-carboxamide]: the IC50 with BaF3 parental cells (setting [3]) amounted to 25 µM. For the same compound, the EC50 in experiment [1] (72 hours) is 0.118 µM.
As for `COC1CC(N)CCN(c2c(NC(=O)c3nc(-c4c(F)cccc4F)sc3N)cnn2C)C1` (centres unmarked) [Example 321, 5-amino-N-[5-(5-amino-3-methoxy-azepan-1-yl)-1-methyl-pyrazol-4-yl]-2-(2,6-difluorophenyl)thiazole-4-carboxamide], the IC50 in the experiment on BaF3 parental cells (setting [2]) is greater than 25 µM. Also, the concentration for a half-maximal effect (EC50) in experiment [1] (72 hours) is 0.00846 µM.
With `Cn1ncc(NC(=O)c2nc(-c3c(F)cccc3F)sc2N)c1N1CCCC2(CCCN2)CC1` (centres unmarked) [Example 351, 5-amino-N-[5-(1,9-diazaspiro[4.6]undecan-9-yl)-1-methyl-pyrazol-4-yl]-2-(2,6-difluorophenyl)thiazole-4-carboxamide], the IC50 with BaF3 parental cells (setting [3]) came to 5.6 µM. Besides, the EC50 in experiment [1] (Homo sapiens, MM1.S, 72 h) came out at 4.9 µM.
Consider `Cn1ncc(NC(=O)c2nc(-c3c(F)cccc3F)sc2N)c1N1CC2CNCC(C1)O2` [Example 354, 5-amino-2-(2,6-difluorophenyl)-N-[1-methyl-5-(9-oxa-3,7-diazabicyclo[3.3.1]nonan-3-yl)pyrazol-4-yl]thiazole-4-carboxamide], for which the IC50 in the experiment on BaF3 parental cells (setting [3]) was determined as 14.4 µM. In experiment [1] (Homo sapiens, MM1.S, 72 h), the EC50 came to 0.168 µM.
For `CNC1CCN(c2c(NC(=O)c3nc(-c4c(F)cccc4F)sc3N)cnn2C)CC(F)(F)C1` (centres unmarked) [Example 408, 5-amino-N-[5-[3,3-difluoro-5-(methylamino)azepan-1-yl]-1-methyl-pyrazol-4-yl]-2-(2,6-difluorophenyl)thiazole-4-carboxamide], the half-maximal inhibitory concentration (IC50) with BaF3 parental cells (setting [3]) worked out at 16.5 µM. In addition, the EC50 in experiment [1] (72 hours) came to 2.4 µM.
For the compound `CNC1CCN(c2c(NC(=O)c3nc(-c4c(F)cccc4F)sc3N)cnn2C)CC(F)(F)C1` (centres unmarked) [Example 409, 5-amino-N-[5-[3,3-difluoro-5-(methylamino)azepan-1-yl]-1-methyl-pyrazol-4-yl]-2-(2,6-difluorophenyl)thiazole-4-carboxamide], the IC50 in the experiment on BaF3 parental cells (setting [2]) was found to be 10.8 µM. The EC50 in experiment [1] (72 hours) came to 0.903 µM.
For `CO[C@H]1CC=C(c2c(NC(=O)c3nc(-c4c(F)cccc4F)sc3N)cnn2C)CC[C@@H]1N` [Example 410, 5-amino-N-(5-((4S,5S)-5-amino-4-methoxycyclohept-1-enyl)-1-methyl-1H-pyrazol-4-yl)-2-(2,6-difluorophenyl)thiazole-4-carboxamide], the IC50 in the experiment on BaF3 parental cells (setting [3]) is 9.2 µM. In experiment [1] (Homo sapiens, MM1.S, 72 h), the EC50 came to 0.693 µM.
In the case of `Cn1ncc(NC(=O)c2nc(-c3c(F)cccc3F)sc2N)c1N1CC[C@H](O)[C@@](C)(N)CC1` [Example 424, 5-amino-N-(5-((4S,5S)-4-amino-5-hydroxy-4-methylazepan-1-yl)-1-methyl-1H-pyrazol-4-yl)-2-(2,6-difluorophenyl)thiazole-4-carboxamide], in the experiment with BaF3 parental cells (setting [3]), the IC50 is greater than 25 µM. The EC50 in experiment [1] (Homo sapiens, MM1.S, 72 h) was 6.5 µM.

Values taken from patent publication US8614206B2 (Genentech, Inc., priority 2011, dated 2013).
